PMC7850424 (Journal of Enzyme Inhibition and Medicinal Chemistry, 2021)

Tests used:
SARS-CoV-2 3CL^pro [1] = biological target: T1, SARS-CoV-2 3CL^pro (Severe acute respiratory syndrome coronavirus 2, UniProt P0DTD1); test: biochemical; details: for inhibition at 50 µM: read-out: % Inhibition at 50 μM, 50 μM compound; for % Inhibition at 50 μM: 50 μM compound
[2] = system: SARS-CoV-2 (C-Tan-nCoV Wuhan strain 01); test: microbe, parasite or virus in culture; format: cell-based
SARS-CoV 3CL^pro = SARS-CoV 3CL^pro (Severe acute respiratory syndrome coronavirus, UniProt P0C6X7); format: biochemical
SARS-CoV-2 3CL^pro [3] = biological target: T1, SARS-CoV-2 3CL^pro; format: biochemical
SARS-CoV = details: cited from earlier work

Work on O=c1cc(-c2ccccc2)oc2ccc(O)c(O)c12 [5,6-Dihydroxyflavone] yielded an inhibition at 50 µM (SARS-CoV-2 3CL^pro [1]) of 26.6 ± 0.4%.

Work on O=c1cc(-c2ccccc2)oc2cc(O)c(O)cc12 [6,7-Dihydroxyflavone] yielded an inhibition at 50 µM (SARS-CoV-2 3CL^pro [1]) of 56.7 ± 2%.

With O=c1cc(-c2ccccc2)oc2cc(O)c(O)c(O)c12 [Baicalein] the “inhibition activity at the post-entry stage” value [2] was “mainly active”, the EC50 ([2]; Severe acute respiratory syndrome coronavirus 2, Vero, 48 h) was 2900 nM and the “inhibition of SARS-CoV 3CLpro activity” value (SARS-CoV 3CL^pro) was “inhibit”. For the same compound, the “anti-SARS-CoV-2 3CLpro activity in cell lysate” value (SARS-CoV-2 3CL^pro [3]) was “showed inhibition activity”.

O=C(O)[C@H]1O[C@@H](Oc2cc3oc(-c4ccccc4)cc(=O)c3c(O)c2O)[C@H](O)[C@@H](O)[C@@H]1O [Baicalin] showed an inhibition at 50 µM (SARS-CoV-2 3CL^pro [1]) of about 41%.

Work on O=c1cc(-c2ccccc2)oc2cc(O)cc(O)c12 [Chrysin] yielded an inhibition at 50 µM (SARS-CoV-2 3CL^pro [1]) of 2.6 ± 1.1%.

O=c1c(O)c(-c2ccc(O)cc2)oc2c(O)c(O)cc(O)c12 [Herbacetin] showed an inhibition at 50 µM (SARS-CoV-2 3CL^pro [1]) of 59.1 ± 1.9%.

In the case of O=c1c(O)c(-c2cc(O)c(O)c(O)c2)oc2cc(O)cc(O)c12 [Myricetin], the “inhibition of SARS-CoV” value (SARS-CoV) is given as “reported to inhibit” and the inhibition at 50 µM (SARS-CoV-2 3CL^pro [1]) is given as 30.8 ± 4.6%.

In the case of O=c1cc(-c2ccc(O)cc2)oc2cc(O)c(O)c(O)c12 [Scutellarein], the “inhibition of SARS-CoV” value (SARS-CoV) is given as “reported to inhibit”.

For O=C(O)[C@H]1O[C@@H](Oc2cc3oc(-c4ccc(O)cc4)cc(=O)c3c(O)c2O)[C@H](O)[C@@H](O)[C@@H]1O [Scutellarin], the “% Inhibition at 50 μM” value (SARS-CoV-2 3CL^pro [1]; 50 µM) was “mild inhibitory activity” and the inhibition at 50 µM (SARS-CoV-2 3CL^pro [1]) was 28.9 ± 1.6%.

In the case of COc1c(O)cc(O)c2c(=O)cc(-c3ccccc3)oc12 [Wogonin], the “% Inhibition at 50 μM” value (SARS-CoV-2 3CL^pro [1]) is reported as “not active” and the inhibition at 50 µM (SARS-CoV-2 3CL^pro [1]) is reported as 6.1 ± 0.8%.
